Measured values from patent US8883718B2, “Treating cancer” (Theryte Limited, priority 2008, dated 2014).
[ ]: non-standard residue; d: D form.

Assays:
[1] = tested on: H460 human non-small cell lung cancer cells; assay: MTS cell viability assay, H460 cells; type: cell-based; settings: H460, 12.5 to 100 μM, 2-4 weeks
Method: (§1) The effect of these peptides was tested on both human fibroblasts and H460 human non-small cell […] cancer cells at doses in the range 12.5 to 100 μM. The peptides were tested in vitro by exposure to 100 H460 human non-small cell lung cancer cells, or short term cultures of normal human diploid fibroblasts, in 200 ul of Ham's F12 tissue culture medium supplemented with 10% FCS. Cells were set up in 100 ul on day 0 and 24 hours later a further 100 ul of the same medium containing ×2 the appropriate concentration of peptide over a range of 12.5-100 uM was added. The cells were then incubated at 37° C., 5% CO2 in an humidified incubator for 2-4 weeks.
(§2) Cell viability was measured by an MTS assay (CellTiter 96^R Non-Radioactive Cell Proliferation Assay. Promega Corporation, 2800 Woods Hollow Road, Madison Wis. 53711-5399 USA). The original form of this assay was described by Mosmann (J. Immunol. Meth. 65; 55-63. 1983) and gives a colorometric reading whose intensity depends on the conversion, by viable cells, of a tetrazolium salt into a coloured formazan which is easily quantified by colorimetric reading of a 96 well assay plate.

[2] = tested on: normal human diploid fibroblasts; assay: MTS cell viability assay, fibroblasts; type: cell-based; settings: 12.5 to 100 μM, 2-4 weeks
Method: as §1, §2

[3] = tested on: RT112 human bladder cancer cells; assay: clonogenic assay on RT112 cells; type: cell-based
Method: (§3) Normal diploid human fibroblasts in short term culture were unaffected (FIG. 2b). […] However, PRGPRP (SEQ ID NO: 2) is only effective at killing RT112 bladder cancer cells at a concentration of 5.0 mM. Because of concern that such high peptide doses might cause artefactual, non-specific effects, structure/function studies were carried out.
(§4) The first experiments were carried out on cyc-[[…]] (THR 53, (SEQ ID NO: 9)), see FIG. 4. Whilst the 96 well assays described in Example 3 are suitable for initial screening of small amounts of peptide material the long incubation periods in dense culture do themselves compromise cell viability to some extent. […] In clonogenic assays, (previously described by Warenius et al Br J Cancer (2000) 83(8), 1048-1059) single cell suspensions of 100 cells are plated in plentiful volumes of 2 ml of Ham's F12 tissue culture medium supplemented with 10% FCS and incubated for 15, 20 or 25 days. A high percentage of the plated cells (40-60% in the case of H460) go through repeated doublings to yield colonies of 200 or more cells which can be easily visualized by the naked eye and counted under a low power lens when stained by giemsa stain.

[4] = tested on: Cdk1 compared to Cdk4 in RT112 cells; assay: sequential Western blots of RT112 cells after peptide exposure; type: cell-based, human; settings: over 15 days
Source text: Peptides were introduced at day 0 and left in-situ throughout the experiment.
In a clinical context this might provide a biomarker of therapeutic efficacy. […] Such a homogeneous therapeutic response is in marked contrast to the wide range of variability in dose response of different cancer cell lines seen with conventional chemotherapeutic agents^24. Cancer cells both underwent successful mitosis and died (FIG. 3f) or died in interphase (FIG. 7d). […] MRC-hTERT fibroblasts (FIG. 7c) and short term cultures of normal diploid human keratinocytes (FIG. 3h) were not killed by 200 μM THR53.

[5] = tested on: Normal diploid human fibroblasts; assay: normal diploid human fibroblasts in short term culture; type: cell-based
Method: as §3

[6] = tested on: H460 human non-small cell lung cancer cells; assay: clonogenic assay on H460 cells; type: cell-based
Method: as §4
The efficacy of THR53 was compared to Ac-PRGPRP-NH2 (SEQ ID NO: 2) using a clonogenic assay.

[7] = tested on: MGHU-1 Human transitional bladder cancer cells; assay: in-vitro culture of MGHU-1 bladder cancer cells, cell death observed morphologically; type: cell-based
Method: as §3
5 mM was required to produce 100% lethality in in vitro experiments on RT 112 (FIG. 2a) or MGHU-1 human bladder cancer cells. This limits the applicability of PRGPRP (SEQ ID NO: 2) to therapy even though it has selected killing activity in human cancer cells but not normal human fibroblasts.

[8] = tested on: RT112 bladder cancer cells; assay: Cell killing by cyclic peptides, RT112 (Table 2); type: cell-based, human; parameters: key: - - - = No cell killing; settings: 100 μM
Method: (§5) Table 2 lists cyclic peptides including the PRGPRP (SEQ ID NO:2) sequence which have no effect on RT112 bladder cancer cells at a concentration of 100 μM.

Fibroblasts = assay: Cell killing by cyclic peptides, fibroblasts (Table 2); type: cell-based; parameters: key: - - - = No cell killing
Method: as §5

human cancer cells = assay: clonogenic assays of human cancer cells exposed to PRGPRP motif in cyclic amphiphilic cassettes; type: cell-based; settings: FIG. 6i
Method: FIGS. 6(h) and (i) show clonogenic assays of human cancer cells exposed to the PRGPRP (SEQ ID NO: 2) motif in cyclic amphiphlic cassettes. THR53 (SEQ ID NO: 9, cyc-[[…]]); THR53C (SEQ ID NO: 23, cyc-[[…]], a control peptide); THR54 (SEQ ID NO: 10, cyc-[[…]]); THR79 (SEQ ID NO: 11, cyc-[PRGPRPvalklalklal]).
as §4
The effectiveness of cyclic peptides comprising amphiphilic sequences is further illustrated in FIGS. 6h and 6i, showing the results of a clonogenic assay using the peptides THR53 cyc-[[…]] (SEQ ID NO: 9); THR53C, cyc-[[…]] […]

cancer cell = assay: effect of amino acid stereochemistry on cancer cell-killing activity; type: cell-based
Source text: The peptides used were: THR75 (SEQ ID NO: 24, cyc-[PRGPRPValklalklal]); THR77 (SEQ ID NO: 25, cyc-[PRGPRPValklalklaL]); THR78 (SEQ ID NO: 26, cyc-[[…]lklalklaL]; THR79 (SEQ ID NO: 11 cyc-[PRGPRPvalklalklal]). Upper case denotes the L isomer of the amino acids and lower case denotes the D isomer.
It has also been discovered that the stereochemistry of the amino acids in the peptide sequence is relevant to efficacy. Analogues of THR54 (SEQ ID NO: 10) in which certain L-amino-acids have been replaced with D-amino-acids were prepared.
This was THR79 in which was approximately 2-4 times as active as THR54.

[9] = tested on: MGHU-1 Human transitional bladder cancer cells; settings: cited from earlier work

Substance: Ac-PRGPRPVKLALKLALKAL-NH2 [THR51, linear peptide outside the scope of the invention]
- cancer cell killing (cell viability, MTS) [1]: improvement in cancer cell killing over PRGPRP
- killing of fibroblasts (cell viability, MTS) [2]: equally as well killed

Substance: Ac-PRRPGPVKLALKLALKAL-NH2 [THR51C, control for THR51 in which one arginine was switched with a glycine, reference compound]
- killing of fibroblasts (cell viability, MTS) [2]: non-specific killing

Substance: Ac-Pro-Arg-Arg-Pro-Gly-Pro-NH2 (Ac-PRRPGP-NH2)
- cancer cell lethality / activity in clonogenic assay ([3]; RT112): inactive
- change in Cdk1 compared to Cdk4 [4]: not seen

Substance: Ac-Pro-Arg-Gly-Pro-Arg-Pro-NH2 (Ac-PRGPRP-NH2) [end-capped hexameric peptide according to WO2005/123760]
- cancer cell lethality / activity in clonogenic assay ([3]; RT112): Cancer cell lethality was confirmed
- concentration effective at killing RT112 bladder cancer cells ([3]; RT112): 5.0 mM
- concentration required to produce 100% lethality ([3]; RT 112, in vitro): 5 mM
- change in Cdk1 compared to Cdk4 [4]: Progressive increase
- effect on normal diploid human fibroblasts in short term culture ([5]; 5.0 mM): unaffected
- effect on H460 cell survival in clonogenic assay ([6]; 1 to 10 mM concentration): limited effect
- effect on H460 non-small cell lung cancer, clonogenic assay ([6]; H460): no effect
- cell death observed morphologically in-vitro ([7]; 5.0 mM, 25 days after exposure): Complete cell death
- concentration required to produce 100% lethality ([7]; MGHU-1, in vitro): 5 mM

Substance: Cyc-[AAAGGGPRGPRPGGGAAA] (cyclic; Cyclic peptide; /note=“cyclic peptide”)
- Cell Killing RT112 [8]: - - -
- Cell Killing Fibroblasts (Fibroblasts): - - -

Substance: Cyc-[AAGPGGPRGPRPGGPGAA] (cyclic; Cyclic peptide; /note=“cyclic peptide”)
- Cell Killing RT112 [8]: - - -
- Cell Killing Fibroblasts (Fibroblasts): - - -

Substance: Cyc-[GGGGGGPRGPRPGGGGGG] (cyclic; Cyclic peptide; /note=“cyclic peptide”)
- Cell Killing RT112 [8]: - - -
- Cell Killing Fibroblasts (Fibroblasts): - - -

Substance: Cyc-[GGGGPRGPRPGGGGPRGPRPVPRGPRPV] (cyclic; Cyclic peptide; /note=“cyclic peptide”)
- Cell Killing RT112 [8]: - - -
- Cell Killing Fibroblasts (Fibroblasts): - - -

Substance: cyc-[FPPRRPGPVKLALKLALK] (cyclic; Control peptide; /note=“cyclic peptide”) [THR53C, a control peptide]
- arginine-related structure function relationship in cyclic amphiphilic compounds (control peptide) (human cancer cells): structure function relationship was retained

Substance: cyc-[PRGPRPVALKLALKLAL] (cyclic; Cyclic peptide; /note=“cyclic peptide”) [THR54]
- cancer cell-killing activity (cancer cell): active

Substance: cyc-[PRGPRPVPRGPRPVPRGPRPV] (cyclic; Cyclic peptide; /note=“cyclic peptide”) [cyclic peptide disclosed in WO2005/123760]
- effect on MGHU1 cells as disclosed in WO2005/123760 [9]: caused morphological changes
- effect on normal fibroblasts [5]: markedly stimulate
- killing of MGHU1 cells [7]: did not kill

Substance: cyc-[PRGPRPValklalklal] (cyclo(PRGPRPV[dA][dL][dK][dL][dA][dL][dK][dL][dA][dL]); SMILES CC(C)C[C@H]1NC(=O)[C@@H](C)NC(=O)[C@H](C(C)C)NC(=O)[C@@H]2CCCN2C(=O)[C@H](CCCNC(=N)N)NC(=O)[C@@H]2CCCN2C(=O)CNC(=O)[C@H](CCCNC(=N)N)NC(=O)[C@@H]2CCCN2C(=O)[C@@H](CC(C)C)NC(=O)[C@@H](C)NC(=O)[C@@H](CC(C)C)NC(=O)[C@@H](CCCCN)NC(=O)[C@@H](CC(C)C)NC(=O)[C@@H](C)NC(=O)[C@@H](CC(C)C)NC(=O)[C@@H](CCCCN)NC1=O) [THR 75]
- cancer cell-killing activity at 100 uM (cancer cell; 100 uM concentration): remove the activity

Substance: cyc-[PRGPRPvalklalklal] (cyclo(PRGPRP[dV][dA][dL][dK][dL][dA][dL][dK][dL][dA][dL]); SMILES CC(C)C[C@H]1NC(=O)[C@@H](C)NC(=O)[C@@H](C(C)C)NC(=O)[C@@H]2CCCN2C(=O)[C@H](CCCNC(=N)N)NC(=O)[C@@H]2CCCN2C(=O)CNC(=O)[C@H](CCCNC(=N)N)NC(=O)[C@@H]2CCCN2C(=O)[C@@H](CC(C)C)NC(=O)[C@@H](C)NC(=O)[C@@H](CC(C)C)NC(=O)[C@@H](CCCCN)NC(=O)[C@@H](CC(C)C)NC(=O)[C@@H](C)NC(=O)[C@@H](CC(C)C)NC(=O)[C@@H](CCCCN)NC1=O) [THR79]
- activity relative to THR54 (cancer cell): 2-4 times
- cancer cell-killing activity (cancer cell): showed cancer cell-killing properties
